Source: the NIST ThermoML archive (doi:10.1021/je049672l)
Numbers after ± are expanded uncertainties.

Conditions: for mass density: Vibrating tube method; for vapor or sublimation pressure: Closed cell (Static) method

CC(C)C [2-methylpropane]
Fluid (supercritical or subcritical phases)
Conditions	mass density [kg/m3]
240 K, 484.1 kPa	617.68 ± 0.26
240 K, 1027.4 kPa	618.3 ± 0.27
240 K, 1538.4 kPa	618.86 ± 0.27
240 K, 2037.8 kPa	619.41 ± 0.28
240 K, 2522.8 kPa	619.95 ± 0.28
240 K, 3029.3 kPa	620.49 ± 0.29
240 K, 3501.9 kPa	621 ± 0.29
240 K, 4038.4 kPa	621.58 ± 0.29
240 K, 4542.1 kPa	622.1 ± 0.3
240 K, 5022.8 kPa	622.62 ± 0.3
240 K, 5522.1 kPa	623.14 ± 0.31
240 K, 5987.3 kPa	623.62 ± 0.31
240 K, 6540.8 kPa	624.19 ± 0.32
240 K, 7010.9 kPa	624.66 ± 0.32
260 K, 517.1 kPa	595.93 ± 0.27
260 K, 947.4 kPa	596.52 ± 0.27
260 K, 1503.8 kPa	597.28 ± 0.28
260 K, 1984.7 kPa	597.94 ± 0.28
260 K, 2532 kPa	598.66 ± 0.29
260 K, 3005.3 kPa	599.28 ± 0.29
260 K, 3472.2 kPa	599.9 ± 0.3
260 K, 4015.9 kPa	600.6 ± 0.3
260 K, 4464.7 kPa	601.16 ± 0.31
260 K, 4915.7 kPa	601.73 ± 0.31
260 K, 5481.6 kPa	602.44 ± 0.32
260 K, 5953.7 kPa	603.05 ± 0.32
260 K, 6532 kPa	603.75 ± 0.33
260 K, 7031.7 kPa	604.37 ± 0.33
280 K, 512.2 kPa	573.26 ± 0.27
280 K, 996 kPa	574.1 ± 0.28
280 K, 1532.9 kPa	575.01 ± 0.28
280 K, 2000.6 kPa	575.8 ± 0.29
280 K, 2508.1 kPa	576.64 ± 0.29
280 K, 2999.4 kPa	577.44 ± 0.3
280 K, 3506 kPa	578.27 ± 0.3
280 K, 4015.2 kPa	579.09 ± 0.31
280 K, 4460.5 kPa	579.8 ± 0.31
280 K, 4938.8 kPa	580.54 ± 0.32
280 K, 5494.5 kPa	581.39 ± 0.33
280 K, 5986.9 kPa	582.16 ± 0.33
280 K, 6507.2 kPa	582.93 ± 0.34
280 K, 6980.4 kPa	583.64 ± 0.34
300 K, 476.5 kPa	548.51 ± 0.28
300 K, 1017.6 kPa	549.71 ± 0.29
300 K, 1462.4 kPa	550.7 ± 0.29
300 K, 1999.9 kPa	551.86 ± 0.3
300 K, 2533.3 kPa	552.99 ± 0.3
300 K, 3021.3 kPa	554.01 ± 0.31
300 K, 3526.2 kPa	555.05 ± 0.31
300 K, 3965.8 kPa	555.93 ± 0.32
300 K, 4482.8 kPa	556.96 ± 0.32
300 K, 4980.2 kPa	557.93 ± 0.33
300 K, 5467.8 kPa	558.87 ± 0.34
300 K, 5953.2 kPa	559.79 ± 0.34
300 K, 6460.3 kPa	560.72 ± 0.35
300 K, 7025.2 kPa	561.79 ± 0.35
320 K, 1063 kPa	522.78 ± 0.29
320 K, 1503.5 kPa	524.1 ± 0.3
320 K, 2072.9 kPa	525.74 ± 0.31
320 K, 2548.7 kPa	527.08 ± 0.31
320 K, 3037.4 kPa	528.43 ± 0.32
320 K, 3521.6 kPa	529.72 ± 0.32
320 K, 4027.5 kPa	531.05 ± 0.33
320 K, 4496.4 kPa	532.26 ± 0.33
320 K, 4946.7 kPa	533.39 ± 0.34
320 K, 5450.3 kPa	534.62 ± 0.35
320 K, 5960.5 kPa	535.86 ± 0.35
320 K, 6511.5 kPa	537.15 ± 0.36
320 K, 6995.3 kPa	538.27 ± 0.37
340 K, 1494.6 kPa	493.98 ± 0.3
340 K, 2007.1 kPa	496.16 ± 0.31
340 K, 2499.6 kPa	498.13 ± 0.32
340 K, 3002.8 kPa	500.07 ± 0.33
340 K, 3503.8 kPa	501.94 ± 0.33
340 K, 4023.8 kPa	503.83 ± 0.34
340 K, 4507.3 kPa	505.51 ± 0.35
340 K, 5017.1 kPa	507.23 ± 0.35
340 K, 5520.7 kPa	508.89 ± 0.36
340 K, 5998.3 kPa	510.42 ± 0.37
340 K, 6512.9 kPa	512.03 ± 0.37
340 K, 6962.7 kPa	513.39 ± 0.38
360 K, 2008.5 kPa	460.57 ± 0.3
360 K, 2503.6 kPa	463.81 ± 0.31
360 K, 2997.5 kPa	466.82 ± 0.32
360 K, 3502.9 kPa	469.71 ± 0.32
360 K, 4027.6 kPa	472.55 ± 0.33
360 K, 4532.2 kPa	475.11 ± 0.34
360 K, 5024.7 kPa	477.51 ± 0.35
360 K, 5482.2 kPa	479.63 ± 0.35
360 K, 6006.8 kPa	481.96 ± 0.36
360 K, 6485.4 kPa	484.01 ± 0.37
360 K, 6987.7 kPa	486.08 ± 0.38
380 K, 2517.9 kPa	417.11 ± 0.29
380 K, 3027.5 kPa	423.54 ± 0.3
380 K, 3511 kPa	428.79 ± 0.31
380 K, 4014.9 kPa	433.63 ± 0.32
380 K, 4487.2 kPa	437.71 ± 0.32
380 K, 4990.6 kPa	441.69 ± 0.33
380 K, 5519.1 kPa	445.53 ± 0.34
380 K, 6019.7 kPa	448.91 ± 0.35
380 K, 6503.3 kPa	451.96 ± 0.35
380 K, 6952.1 kPa	454.64 ± 0.36

Liquid
Conditions	mass density [kg/m3]	vapor or sublimation pressure [kPa]
240 K	617.17 ± 0.26	40.1 ± 0.5
260 K	595.32 ± 0.27	94.6 ± 0.5
280 K	572.74 ± 0.27	197.8 ± 0.6
300 K	548.27 ± 0.28	368.6 ± 0.7
320 K	521.48 ± 0.29	632.5 ± 1
340 K	491.87 ± 0.29	1013.7 ± 1.6
360 K	457.33 ± 0.28	1541.6 ± 2.4
380 K	413.34 ± 0.27	2250.4 ± 3.5
